Measured values from US10813932B2, “1-pyrazolyl-3-(4-((2-anilinopyrimidin-4-yl) oxy) napththalen-1-yl) ureas as P38 MAP knase inhibitors” (Respivert Limited, priority 2011, dated 2020).

Assays:
[1] = system: Balb/c mice; test: LPS-induced neutrophil accumulation in mice; format: in vivo
Procedure: Non-fasted Balb/c mice were dosed by the intra tracheal route with either vehicle, or the test substance at the indicated times (within the range 2-8 hr) before stimulation of the inflammatory response by application of an LPS challenge. At T=0, mice were placed into an exposure chamber and exposed to LPS (7.0 mL, 0.5 mg/mL solution in PBS) for 30 min). After a further 8 hr the animals were anesthetized, their tracheas cannulated and BALF extracted by infusing and then withdrawing from their lungs 1.0 mL of PBS via the tracheal catheter. Total and differential white cell counts in the BALF samples were measured using a Neubaur haemocytometer. Cytospin smears of the BALF samples were prepared by centrifugation at 200 rpm for 5 min at RT and stained using a DiffQuik stain system (Dade Behring). Cells were counted using oil immersion microscopy. Data for neutrophil numbers in BAL are shown as mean±S.E.M. (standard error of the mean). The percentage inhibition of neutrophil accumulation was calculated for each treatment relative to vehicle treatment.

[2] = system: A/J mice; test: Cigarette smoke model; format: in vivo
Procedure: A/J mice (males, 5 weeks old) were exposed to cigarette smoke (4% cigarette smoke, diluted with air) for 30 min/day for 11 days using a Tobacco Smoke Inhalation Experiment System for small animals (Model SIS-CS; Sibata Scientific Technology, Tokyo, Japan). Test substances were administered intra-nasally (35 μL of solution in 50% DMSO/PBS) once daily for 3 days after the final cigarette smoke exposure. At 12 hr after the last dosing, each of the animals was anesthetized, the trachea cannulated and bronchoalveolar lavage fluid (BALF) was collected. The numbers of alveolar macrophages and neutrophils were determined by FACS analysis (EPICS® ALTRA II, Beckman Coulter, Inc., Fullerton, Calif., USA) using anti-mouse MOMA2 antibody (macrophage) or anti-mouse 7/4 antibody (neutrophil). BALF was centrifuged and the supernatant was collected. The level of keratinocyte chemoattractant (KC; CXCL1) in BALF was quantitated using a Quentikine® mouse KC ELISA kit (R&D systems, Inc., Minneapolis, Minn., USA).

With `Cc1ccc(-n2nc(C(C)(C)C)cc2NC(=O)Nc2ccc(Oc3ccnc(Nc4ccccc4)n3)c3ccccc23)cc1` [Example 1, 1-(3-(tert-Butyl)-1-(p-tolyl)-1H-pyrazol-5-yl)-3-(4-(2-(phenylamino)pyrimidin-4-yloxy)naphthalen-1-yl)urea] the LPS-induced neutrophil accumulation [1] was “dose dependent inhibition”, the “cigarette smoke induced CXCL1 (KC) production in BALF” value [2] was “inhibited” and the “macrophage accumulation in BALF induced by cigarette smoke” value [2] was “dose-dependent inhibition”. The “neutrophil accumulation in BALF induced by cigarette smoke” value [2] was “dose-dependent inhibition”.
